Results as given in patent publication US8940762B2, “Methods for treating pain” (AbbVie Inc., priority 2010, dated 2015).

Key:
[1] = test system: CCI rats (sciatic nerve-induced neuropathic pain); conditions: single dose p.o.; at less than about 100 micromoles/kg, for example less than about 30 micromoles/kg
From the text: Food and water were available ad libitum at all times except during testing. […]
The von Frey filaments were presented perpendicularly to the plantar surface of the selected hind paw, and then held in this position for approximately 8 seconds with enough force to cause a slight bend in the filament. Positive responses included an abrupt withdrawal of the hind paw from the stimulus, or flinching behavior immediately following removal of the stimulus.

[2] = test system: osteoarthritic rats (MIA-induced osteoarthritis pain); experiment: Monoiodoacetate-induced osteoarthritis (MIA-OA) pain model, hind limb grip force; format: in vivo, Sprague-Dawley rats; conditions: for percent return of grip force to normalcy: n=6
Experimental: Pain behavior was assessed by measurement of hind limb grip force (GF) in adult osteoarthritic rats. Unilateral knee joint osteoarthritis was induced in rats by a single intraarticular (i.a.) injection of sodium monoiodoacetate (MIA) (Sigma, St. Louis, Mo.) (3 mg in 0.05 ml sterile isotonic saline) into the joint cavity using a 26 G needle under light (2-4%) isoflurane anesthesia, as previously described ([…]., Honore, P., 2009, Pharmacological modulation of movement-evoked pain in a rat model, Eur. J. […] Following injection, the animals were allowed to recover from the effects of anesthesia (usually 5-10 minutes) before returning them to their home cages. Grip strength was assessed in osteoarthritic rats as a measure of activity-induced pain. Measurements of peak hind limb grip force were conducted by recording the maximum compressive force (CFmax), in grams of force, exerted on the hind limb strain gauge, in a commercially available grip force measurement system (Columbus Instruments, Columbus, Ohio). During testing, each rat was gently restrained and allowed to grasp the wire mesh frame (10×12 cm) attached to the strain gauge. The animal was then moved in a rostral-to-caudal direction until the grip was broken. Each rat was sequentially tested twice at an approximately two-three minute interval to obtain a raw mean grip force (CFmax in gram force units). In order to account for the body weight differences among the rats, this raw mean grip force was converted to a maximum hind limb compressive force for each animal by dividing the CFmax by the body weight of the rat in kg [(CFmax in gram force)/kg body weight]. […] Compound A was administered in 10% DMSO/HBC vehicle orally at a volume of 2 ml/kg, 60 minutes before testing. The NSAID diclofenac (30 mg/kg, p.o.) was given 60 minutes before data collection and used as a positive control. A group of age-matched naïve (not injected with MIA) animals was added as a comparator to the drug-dosed groups. The vehicle control response for each group of MIA-treated animals was defined as the 0% response (0% effect), whereas the naïve control group was defined as the normal response and as 100% effect. The % effects for each dose group was expressed as % return of response to normalcy, compared to the naïve group. That is, the % effect=(Treatment CFmax-Vehicle CFmax)[…]]×100). Higher % effect numbers indicate increased relief from the pain in the model, with 100% indicating a return to the level of response seen in normal (non-osteoarthritic) animals. The data obtained from various dose groups for the test compound were compared with data from the naïve group.

Row | Structure (SMILES) | change in Paw Withdrawal Threshold versus vehicle [1] | percent return of grip force to normalcy ([2]; 3 μmol/kg p.o., 60 minutes before data collection, MIA rats) | percent return of grip force to normalcy ([2]; 10 μmol/kg p.o., 60 minutes before data collection, MIA rats) [%] | percent return of grip force to normalcy ([2]; 30 μmol/kg p.o., 60 minutes before data collection, MIA rats) [%] | ED50 (return of grip force to normalcy) ([2]; p.o., 60 minutes before testing, MIA rats) | % Effect (return of grip force to normalcy) ([2]; 30 mg/kg p.o., 60 minutes before data collection, positive control)
1 | c1cc2cc(-c3ccc(O[C@H]4C[C@H]5CC[C@@H](C4)N5)cn3)ccc2[nH]1 [Compound A, 5-(5-((1R,3r,5S)-8-azabicyclo[3.2.1]octan-3-yloxy)pyridine-2-yl)-1H-indole] | statistically significant change | approximately 39% | ~60 | ~73 | approximately 6 μmol/kg | –
2 | O=C(O)Cc1ccccc1Nc1c(Cl)cccc1Cl [diclofenac, reference compound] | – | – | – | – | – | about 69%
